Experimental data as given in patent US11414436B2, “Non-coordinating anion type activators containing cation having large alkyl groups” (ExxonMobil Chemical Patents Inc., priority 2018, dated 2022).
Where “and” joins values, the source holds several entries; their conditions need not be identical. Equal values may be shown once. Values belong to the compound of their own block, whether it stands above or below them.

Columns and labels:
[1] = Solubility studies of the activators (saturated solution in isohexane or methylcyclohexane); type: physicochemical; settings: for Solubility limit in i-hexane (mM at 25° C.) / Solubility limit in i-hexane (wt % at 25° C.): isohexane; for Solubility limit in MeCy (mM at 25° C.): methylcyclohexane
Description: Solubility Studies of the Activators
Procedure for Solid Activators.
A saturated solution of each of the solid ammonium borate activators was prepared by stirring an excess of the activator with either isohexane or methylcyclohexane solvent for several hours at 25° C. The mixture was then filtered and a known volume of the filtrate was evaporated to dryness in a tared vial. The vial was then weighed to determine the mass of activator that was dissolved in the aliquot. The concentration of the saturated solution is presented in millimoles of activator per liter of solution (mM).
Procedure for Activators that Form Emulsions.
A saturated solution of the activator was prepared by slowly adding the solvent to a pre-weighed amount of the activator. The final volume was determined as the minimum amount of solvent required to convert the emulsion into a homogeneous solution. The concentration of the saturated solution is presented in millimoles of activator per liter of solution (mM). Alternatively, an emulsion of the activator was prepared by adding the solvent to an excess amount of activator. The resulting emulsion was separated from the undissolved solids by decanting the emulsion into a tared vial. Solvent was then added dropwise until the emulsion became homogeneous. The mass of the final solution was measured and then the solvent was evaporated to dryness to obtain the mass of the activator. The concentration of the saturated solution is presented in millimoles of activator per liter of solution (mM).

[2] = as above; type: physicochemical; settings: methylcyclohexane
[3] = Propylene homopolymerization in parallel pressure reactor, MCN-1 with ammonium borate activators; settings: for activity: isohexane
Text: Polymerization in Parallel Pressure Reactor
Solvents, polymerization-grade toluene, and isohexane were supplied by ExxonMobil Chemical Company and purified by passing through a series of columns: two 500 cc Oxyclear cylinders in series from Labclear (Oakland, Calif.), followed by two 500 cc columns in series packed with dried 3 Å mole sieves (8-12 mesh; Aldrich Chemical Company), and two 500 cc columns in series packed with dried 5 Å mole sieves (8-12 mesh; Aldrich Chemical Company). 1-octene (C8) and 1-hexene (C6) (98%, Aldrich Chemical Company) were dried by stirring over NaK overnight followed by filtration through basic alumina (Aldrich Chemical Company, Brockman Basic 1).
(§1) Solutions of the metal complexes and activators were prepared in a drybox using toluene or methylcyclohexane. Concentrations were typically 0.2 mmol/L. Tri-n-octylaluminum (TNOAL, neat, AkzoNobel) was typically used as a scavenger. Concentration of the TNOAL solution in toluene ranged from 0.5 to 2.0 mmol/L.
(§2) Polymerizations were carried out in a parallel pressure reactor, as generally described in U.S. Pat. Nos. 6,306,658; 6,455,316; 6,489,168; WO 00/09255; and Murphy, V. et al. (2003) “A Fully Integrated High-Throughput Screening Methodology for the Discovery of New Polyolefin Catalysts: Discovery of a New Class of High Temperature Single-Site Group (IV) Copolymerization Catalysts,” J. Am. Chem. Soc., v. 125, pp. 4306-4317, each of which is fully incorporated herein by reference. […] Although the specific quantities, temperatures, solvents, reactants, reactant ratios, pressures, and other variables are frequently changed from one polymerization run to the next, the following describes a typical polymerization performed in a parallel pressure reactor.
Catalyst systems dissolved in solution were used in the polymerization examples below, unless specified otherwise.
RUN A: Propylene Homopolymerization (PP).
The reactor was prepared as described above and purged with propylene. For the examples in Table 2, the catalyst and activator solutions were prepared in toluene. […] Isohexane was then injected into each vessel at room temperature followed by a predetermined amount of propylene gas. The reactor was heated to the set temperature while stirring at 800 rpm, and the scavenger, activator and catalyst solutions were injected sequentially to each vessel. The polymerization was allowed to proceed as described previously.
A series of propylene polymerizations were performed in parallel pressure reactors (PPRs) developed by Symyx Technologies, Inc. In these polymerizations, the metallocene rac-dimethylsilyl-bis(indenyl)hafnium dimethyl (MCN-1) was used along with several different ammonium borate activators. Polymerizations were performed at 85° C. and 100° C.
Propylene homopolymerization (PP).
A series of propylene polymerizations were performed in the parallel pressure reactor similar to the procedure described above. In these studies rac-dimethylsilyl-bis(indenyl)hafnium dimethyl (MCN-1) was used along with ammonium borate activators.

[4] = Ethylene-octene copolymerization in parallel pressure reactor, non-metallocene catalyst CAT-1; settings: catalyst CAT-1 20 nmol; activator 1.1 equiv; 100° C.; 135 psi; 1-octene 100 uL; TNOAL 0.5 umol
Description: as §1, §2
(§3) Ethylene-Octene Copolymerization (EO).
(§4) A pre-weighed glass vial insert and disposable stirring paddle were fitted to each reaction vessel of the reactor, which contains 48 individual reaction vessels. The reactor was then closed and purged with ethylene. Each vessel was charged with enough solvent (typically isohexane) to bring the total reaction volume, including the subsequent additions, to the desired volume, typically 5 mL. 1-octene, if required, was injected into the reaction vessel and the reactor was heated to the set temperature and pressurized to the predetermined pressure of ethylene, while stirring at 800 rpm. The aluminum compound (such as tri-n-octylaluminum) in toluene was then injected as scavenger followed by addition of the activator solution (typically 1.0-1.2 molar equivalents).
(§5) The catalyst (and activator solutions for Run A) were all prepared in toluene. The catalyst solution (typically 0.020-0.080 μmol of metal complex) was injected into the reaction vessel and the polymerization was allowed to proceed until a pre-determined amount of ethylene (quench value typically 20 psi) had been used up by the reaction. Alternatively, the reaction may be allowed to proceed for a set amount of time (maximum reaction time typically 30 minutes). Ethylene was added continuously (through the use of computer controlled solenoid valves) to the autoclaves during polymerization to maintain reactor gauge pressure (P setpt, +/−2 psig) and the reactor temperature (T) was monitored and typically maintained within +/−1° C. The reaction was quenched by pressurizing the vessel with compressed air. After the reactor was vented and cooled, the glass vial insert containing the polymer product and solvent was removed from the pressure cell and the inert atmosphere glove box, and the volatile components were removed using a Genevac HT-12 centrifuge and Genevac VC3000D vacuum evaporator operating at elevated temperature and reduced pressure. The vial was then weighed to determine the yield of the polymer product. The resultant polymer was analyzed by Rapid GPC (see below) to determine the molecular weight, by FT-IR (see below) to determine percent octene incorporation, and by DSC (see below) to determine melting point (Tm).
(§6) Equivalence is determined based on the mole equivalents relative to the moles of the transition metal in the catalyst complex.
(§7) Activators of the present disclosure can also be used for activating non-metallocene catalysts for polymerization of olefins. Table 4 illustrates copolymerization of ethylene and octene using activators of the present disclosure and non-metallocene catalysts (CAT-1, CAT-2, CAT-3, and CAT-4).

[5] = Ethylene-octene copolymerization in parallel pressure reactor, non-metallocene catalyst CAT-2; settings: catalyst CAT-2 20 nmol; activator 1.1 equiv; 100° C.; 135 psi; 1-octene 100 uL; TNOAL 0.5 umol
Description: as §1, §2, §3, §4, §5, §6, §7

[6] = Ethylene-octene copolymerization in parallel pressure reactor, non-metallocene catalyst CAT-3; settings: catalyst CAT-3 20 nmol; activator 1.1 equiv; 100° C.; 135 psi; 1-octene 100 uL; TNOAL 0.5 umol
Description: as §1, §2, §3, §4, §5, §6, §7

[7] = Ethylene-octene copolymerization in parallel pressure reactor, non-metallocene catalyst CAT-4; settings: catalyst CAT-4 20 nmol; activator 1.1 equiv; 100° C.; 135 psi; 1-octene 100 uL; TNOAL 0.5 umol
Description: as §1, §2, §3, §4, §5, §6, §7

[8] = propylene, 100 °C, 150 psi, MCN-1 = 20 nmol, activator = 20 nmol, TNOAL 500 nmol

Compound: CCCCCCCCCCCCCCCCCC[NH+](CCCCCCCCCCCCCCCCCC)c1ccccc1C.Fc1c(F)c(F)c2c(F)c([B-](c3c(F)c(F)c4c(F)c(F)c(F)c(F)c4c3F)(c3c(F)c(F)c4c(F)c(F)c(F)c(F)c4c3F)c3c(F)c(F)c4c(F)c(F)c(F)c(F)c4c3F)c(F)c(F)c2c1F [DOdoTH-BF28, 2-methyl-N,N-dioctadecylbenzenaminium-BF28]
- Solubility limit in i-hexane (mM at 25° C.) [1]: 3.0 mM
- Solubility limit in i-hexane (wt % at 25° C.) [1]: 0.73 wt %
- Solubility limit in MeCy (mM at 25° C.) [1]: >190 mM
- Solubility limit in MeCy (wt % at 25° C.) [2]: >40 wt %

Compound: Di(hydrogenated tallow)methylamine-BF20 [M2HTH-BF20]
- activity [3, 8]: 46 kg/mmol/h and 30 kg/mmol/h and 36 kg/mmol/h
- activity [4]: 2030 kg/mmol/h and 2214 kg/mmol/h
- activity [5]: 806 kg/mmol/h and 755 kg/mmol/h
- activity [6]: 711 kg/mmol/h and 786 kg/mmol/h
- activity [7]: 51 kg/mmol/h and 63 kg/mmol/h

Compound: Di(hydrogenated tallow)methylamine-BF28 [M2HTH-BF28]
- activity ([3]; Activator Equiv 1.0, TNOAL 0.25 umol, MCN-1 30 nmol, 85° C., propylene 135 psi): 187 kg/mmol/h and 167 kg/mmol/h and 160 kg/mmol/h
- activity ([3]; Activator Equiv 1.0, TNOAL 0.50 umol, MCN-1 30 nmol, 85° C., propylene 135 psi): 151 kg/mmol/h and 113 kg/mmol/h and 118 kg/mmol/h
- activity ([3]; Activator Equiv 1.0, TNOAL 0.75 umol, MCN-1 30 nmol, 85° C., propylene 135 psi): 102 kg/mmol/h and 95 kg/mmol/h
- activity ([3]; Activator Equiv 1.2, TNOAL 0.25 umol, MCN-1 30 nmol, 85° C., propylene 135 psi): 203 kg/mmol/h and 195 kg/mmol/h and 166 kg/mmol/h
- activity ([3]; Activator Equiv 1.2, TNOAL 0.50 umol, MCN-1 30 nmol, 85° C., propylene 135 psi): 169 kg/mmol/h and 153 kg/mmol/h
- activity ([3]; Activator Equiv 1.2, TNOAL 0.75 umol, MCN-1 30 nmol, 85° C., propylene 135 psi): 119 kg/mmol/h and 104 kg/mmol/h
- activity ([3]; Activator Equiv 1.4, TNOAL 0.25 umol, MCN-1 30 nmol, 85° C., propylene 135 psi): 204 kg/mmol/h and 196 kg/mmol/h and 178 kg/mmol/h
- activity ([3]; Activator Equiv 1.4, TNOAL 0.50 umol, MCN-1 30 nmol, 85° C., propylene 135 psi): 157 kg/mmol/h and 142 kg/mmol/h
- activity ([3]; Activator Equiv 1.4, TNOAL 0.75 umol, MCN-1 30 nmol, 85° C., propylene 135 psi): 127 kg/mmol/h and 103 kg/mmol/h
- activity ([3]; Activator Equiv 1.6, TNOAL 0.25 umol, MCN-1 30 nmol, 85° C., propylene 135 psi): 229 kg/mmol/h and 203 kg/mmol/h and 180 kg/mmol/h
- activity ([3]; Activator Equiv 1.6, TNOAL 0.50 umol, MCN-1 30 nmol, 85° C., propylene 135 psi): 168 kg/mmol/h and 144 kg/mmol/h
- activity ([3]; Activator Equiv 1.6, TNOAL 0.75 umol, MCN-1 30 nmol, 85° C., propylene 135 psi): 129 kg/mmol/h and 117 kg/mmol/h
- average catalyst activity, comparison of the four activators (FIG. 6) ([3]; MCN-1, polypropylene at 100° C., Table 7 runs): much lower activity
- activity ([3]; propylene, 85 °C, 135 psi, MCN-1 = 20 nmol, activator = 20 nmol, TNOAL 500 nmol): 75 kg/mmol/h and 55 kg/mmol/h
- activity [3, 8]: 49 kg/mmol/h and 60 kg/mmol/h and 96 kg/mmol/h
- activity [4]: 2494 kg/mmol/h and 1709 kg/mmol/h
- activity [5]: 620 kg/mmol/h and 352 kg/mmol/h
- activity [6]: 825 kg/mmol/h and 863 kg/mmol/h
- activity [7]: 48 kg/mmol/h and 65 kg/mmol/h

Second part, the compound after the results:

- Solubility limit in i-hexane (mM at 25° C.) [1]: 1.3 mM
- Solubility limit in i-hexane (wt % at 25° C.) [1]: 0.18 wt %
- Solubility limit in MeCy (mM at 25° C.) [1]: 1.4 mM
- Solubility limit in MeCy (wt % at 25° C.) [2]: 0.17 wt %
Compound: CCCCCCCCCC[NH+](C)c1ccccc1.Fc1c(F)c(F)c([B-](c2c(F)c(F)c(F)c(F)c2F)(c2c(F)c(F)c(F)c(F)c2F)c2c(F)c(F)c(F)c(F)c2F)c(F)c1F [MDAH-BF20, N-decyl-N-methylanilinium-BF20]

- Solubility limit in i-hexane (mM at 25° C.) [1]: 0.9 mM
- Solubility limit in i-hexane (wt % at 25° C.) [1]: 0.12 wt %
- Solubility limit in MeCy (mM at 25° C.) [1]: 1.7 mM
- Solubility limit in MeCy (wt % at 25° C.) [2]: 0.21 wt %
Compound: CCCCCCCCCC[NH+](C)c1ccccc1.Fc1c(F)c(F)c2c(F)c([B-](c3c(F)c(F)c4c(F)c(F)c(F)c(F)c4c3F)(c3c(F)c(F)c4c(F)c(F)c(F)c(F)c4c3F)c3c(F)c(F)c4c(F)c(F)c(F)c(F)c4c3F)c(F)c(F)c2c1F [MDAH-BF28, N-decyl-N-methylanilinium-BF28]

- Solubility limit in i-hexane (mM at 25° C.) [1]: 0.8 mM
- Solubility limit in i-hexane (wt % at 25° C.) [1]: 0.10 wt %
- Solubility limit in MeCy (mM at 25° C.) [1]: 7.9 mM
- Solubility limit in MeCy (wt % at 25° C.) [2]: 1.1 wt %
Compound: CCCCCCCCCCCCCCCCCCc1ccc([NH+](C)C)cc1.Fc1c(F)c(F)c([B-](c2c(F)c(F)c(F)c(F)c2F)(c2c(F)c(F)c(F)c(F)c2F)c2c(F)c(F)c(F)c(F)c2F)c(F)c1F [OdDMAH-BF20, N,N-dimethyl-4-octadecylbenzenaminium-BF20]

- Solubility limit in i-hexane (mM at 25° C.) [1]: <0.1 mM
- Solubility limit in i-hexane (wt % at 25° C.) [1]: <0.1 wt %
- Solubility limit in MeCy (mM at 25° C.) [1]: 1.9 mM
- Solubility limit in MeCy (wt % at 25° C.) [2]: 0.3 wt %
Compound: CCCCCCCCCCCCCCCCCCc1ccc([NH+](C)C)cc1.Fc1c(F)c(F)c2c(F)c([B-](c3c(F)c(F)c4c(F)c(F)c(F)c(F)c4c3F)(c3c(F)c(F)c4c(F)c(F)c(F)c(F)c4c3F)c3c(F)c(F)c4c(F)c(F)c(F)c(F)c4c3F)c(F)c(F)c2c1F [OdDMAH-BF28, N,N-dimethyl-4-octadecylbenzenaminium-BF28]
